In the experiment the test system is PS19 mouse model of tauopathy (human MAPT P301S). Description: Behavior, neuropathology and survival of PS19 mice. In kind it is in vivo. The note with it: 50, 100, and 150 mg/kg in feed, approximately 8 months.

The structures appear in SMILES notation. *1 amine or outer side, *2 acyl side, *3 side chain or, on linkers, in order; H or OH if unused. Where a SMILES comes first, the peptide text is derived from it. Bridges are numbered along the chain shown (N, C = ends). [ ]: non-standard residue; d: D form. The star is where a group is joined. ξ: configuration not given here. X2 = O=C(C(N[*:1])c1ccc(OC2OC(CO)C(O)C(O)C2OC2OC(CO)C(O)C(O)C2O)cc1)[*:2]; Octa(2Z,4E)dienoyl(7-Me) = CC(C)C/C=C/C=C\C(=O)*; ξPhg(3-Cl-4-OH) = NC(C(=O)O)c1ccc(O)c(Cl)c1; X1 = NC(=O)C(O[*:3])C(N[*:1])C(=O)[*:2]; Hpg = N[CH](C(=O)O)c1ccc(O)cc1; Orn = NCCC[CH](N)C(=O)O

Regarding `CC(C)C/C=C/C=C\C(=O)NC(CC(N)=O)C(=O)NC1C(=O)NC(c2ccc(O)cc2)C(=O)NC(CCCN)C(=O)NC(C(C)O)C(=O)NC(c2ccc(O)cc2)C(=O)NC(c2ccc(O)cc2)C(=O)NC(C(C)O)C(=O)NC(Cc2ccccc2)C(=O)NC(CCCN)C(=O)NC(c2ccc(OC3OC(CO)C(O)C(O)C3OC3OC(CO)C(O)C(O)C3O)cc2)C(=O)NC(C(C)O)C(=O)NC(c2ccc(O)cc2)C(=O)NCC(=O)NC(CC(C)C)C(=O)NC(C)C(=O)NC(c2ccc(O)c(Cl)c2)C(=O)OC1C(N)=O` (centres unmarked) [Ramoplanin A2] ({Octa(2Z,4E)dienoyl(7-Me)}-N[X1][Hpg][Orn]T[Hpg][Hpg]TF[Orn][X2]T[Hpg]GLA[ξPhg(3-Cl-4-OH)]; ester 2-C; configuration not given here), the “cognition, neuropathology, and survival of PS19 mice” value is on record as “positive effect”; the “tau aggregation in PS19 mice” value is “inhibits tau aggregation”.

For the origin of these results see US20260199426A1, “CYCLIC LIPOPEPTIDE ANTIBIOTIC COMPOUNDS FOR USE IN THE TREATMENT OF PROTEIN AGGREGATION DISEASE” (DEUTSCHES ZENTRUM FÜR NEURODEGENERATIVE ERKRANKUNGEN E. V., priority 2022, published 2026).
